Data reported in ChEMBL document CHEMBL1926516, “Induction of cell cycle arrest by the carbazole alkaloid Clauszoline-I from Clausena vestita D. D. Tao via inhibition of the PKCδ phosphorylation” (Eur J Med Chem, 2012).
Calls of active or inactive are those of the source. No cut-off for these calls is given here.

Tests used:
HepG2 [1] = assay: cells; assay type: functional, cell-based; conditions: Homo sapiens, HepG2, 48 h
[2] = Cytotoxicity human L02 cells after 48 hrs by WST-8 based CCK8 assay; assay type: cell-based; conditions: L02, 48 h
HepG2 [3] = assay: Growth inhibition of human HepG2 cells at 4 uM after 24 to 72 hrs by WST-8 based CCK8 assay; assay type: functional, cell-based
HepG2 [4] = assay: Growth inhibition of human HepG2 cells at 16 uM after 24 to 72 hrs by WST-8 based CCK8 assay; assay type: functional, cell-based
HeLa = assay: Growth inhibition human HeLa cells after 48 hrs by WST-8 based CCK8 assay; assay type: functional, cell-based
T98G = assay: Growth inhibition human T98G cells after 48 hrs by WST-8 based CCK8 assay; assay type: cell-based
[5] = Growth inhibition human CNE2 cells after 48 hrs by WST-8 based CCK8 assay; assay type: functional, cell-based; conditions: CNE-2, 48 h
MDA-MB-231 = assay: Growth inhibition human MDA-MB-231 cells after 48 hrs by WST-8 based CCK8 assay; assay type: functional, cell-based; conditions: MDA-MB-231, 48 h
HepG2 [6] = assay: Cytotoxicity against human HepG2 cells assessed as increase in cells with filamentous protrusions at 16 uM after 24 hrs using […] staining by confocal microscopy; assay type: functional, cell-based
[7] = molecular target: Transforming protein RhoA (Homo sapiens) (UniProt P61586); assay: Inhibition of RhoA activation in human HepG2 cells assessed as decrease of membrane-associated protein level at 16 uM after 24 hrs by Western blot analysis; assay type: cell-based
[8] = molecular target: Transforming protein RhoA (Homo sapiens) (UniProt P61586); assay: Inhibition of RhoA activation in human L02 cells assessed as decrease of membrane-associated protein level at 16 uM after 24 hrs by Western blot analysis; assay type: cell-based
HepG2 [9] = assay: Induction of apoptosis in human HepG2 cells at 16 uM after 24 hrs using propidium iodide staining by flow cytometry; assay type: functional, cell-based
HepG2 [10] = assay: Cell cycle arrest in human HepG2 cells assessed as accumulation at G0/G1 phase at 16 uM after 24 hrs using propidium iodide staining by flow cytometry (reference value: 71.5 %); assay type: functional
HepG2 [11] = assay: Cell cycle arrest in human HepG2 cells assessed as accumulation at S phase at 16 uM after 24 hrs using propidium iodide staining by flow cytometry (reference value: 21.6 %); assay type: functional
HepG2 [12] = assay: Cell cycle arrest in human HepG2 cells assessed as accumulation at G2/M phase at 16 uM after 24 hrs using propidium iodide staining by flow cytometry (reference value: 6.9 %); assay type: functional
HepG2 [13] = assay: Cell cycle arrest in human HepG2 cells assessed as decrease in Chk1 protein level in nucleus at 16 uM after 24 hrs by Western blot analysis; assay type: functional, cell-based
HepG2 [14] = assay: Cell cycle arrest in human HepG2 cells assessed as increase in cytoplasmic Chk1 protein level at 16 uM after 24 hrs by Western blot analysis; assay type: functional, cell-based
HepG2 [15] = assay: Cell cycle arrest in human HepG2 cells assessed as effect on Chk2 protein level in nucleus at 16 uM after 24 hrs by Western blot analysis; assay type: functional, cell-based
HepG2 [16] = assay: Cell cycle arrest in human HepG2 cells assessed as effect on cytoplasmic Chk2 protein level at 16 uM after 24 hrs by Western blot analysis; assay type: functional, cell-based
[17] = Cell cycle arrest in human L02 cells assessed as effect on Chk1 protein level in nucleus at 16 uM after 24 hrs by Western blot analysis; assay type: ADME, cell-based; conditions: l02, 24 h
[18] = Cell cycle arrest in human L02 cells assessed as effect on cytoplasmic Chk1 protein level at 16 uM after 24 hrs by Western blot analysis; assay type: ADME, cell-based; conditions: l02, 24 h
[19] = Cell cycle arrest in human L02 cells assessed as effect on Chk2 protein level in nucleus at 16 uM after 24 hrs by Western blot analysis; assay type: ADME, cell-based; conditions: l02, 24 h
[20] = Cell cycle arrest in human L02 cells assessed as effect on cytoplasmic Chk2 protein level at 16 uM after 24 hrs by Western blot analysis; assay type: ADME, cell-based; conditions: l02, 24 h
[21] = molecular target: Protein kinase C delta type (Homo sapiens) (UniProt Q05655); assay: Inhibition of PKCdelta phosphorylation at Ser643 in human HepG2 cells by Western blot analysis; assay type: cell-based
[22] = molecular target: Protein kinase C delta type (Homo sapiens) (UniProt Q05655); assay: Inhibition of PKCdelta phosphorylation at Ser643 in human L02 cells by Western blot analysis; assay type: cell-based
[23] = molecular target: PKC alpha and beta-2 (Homo sapiens) (UniProt P17252+P05771); assay: Inhibition of PKCalpha/beta2 phosphorylation at Thr 638/641 in human HepG2 cells by Western blot analysis; assay type: cell-based
[24] = molecular target: Protein kinase C delta type (Homo sapiens) (UniProt Q05655); assay: Inhibition of PKCdelta phosphorylation at Thr505 in human L02 cells by Western blot analysis; assay type: cell-based
[25] = molecular target: Protein kinase C iota type/zeta type (Homo sapiens) (UniProt P41743+Q05513); assay: Inhibition of PKCzeta/lambda phosphorylation at Thr410/403 in human HepG2 cells by Western blot analysis; assay type: cell-based
HepG2 [26] = assay: Cytotoxicity against human HepG2 cells assessed as decrease in F-actin staining at 16 uM after 24 hrs using […] staining by confocal microscopy; assay type: functional, cell-based
[27] = molecular target: Transforming protein RhoA (Homo sapiens) (UniProt P61586); assay: Inhibition of RhoA activation in human HepG2 cells assessed as decrease of membrane-associated protein level at 10 uM after 24 hrs by Western blot analysis; assay type: cell-based
[28] = molecular target: Protein kinase C delta type (Homo sapiens) (UniProt Q05655); conditions: HepG2, 10 uM
Description: Inhibition of PKCdelta phosphorylation at Ser643 in human HepG2 cells at 10 uM after 1 hr by Western blot analysis

Chain of Protein kinase C delta type (Homo sapiens) (Q05655 whole entry, looked up): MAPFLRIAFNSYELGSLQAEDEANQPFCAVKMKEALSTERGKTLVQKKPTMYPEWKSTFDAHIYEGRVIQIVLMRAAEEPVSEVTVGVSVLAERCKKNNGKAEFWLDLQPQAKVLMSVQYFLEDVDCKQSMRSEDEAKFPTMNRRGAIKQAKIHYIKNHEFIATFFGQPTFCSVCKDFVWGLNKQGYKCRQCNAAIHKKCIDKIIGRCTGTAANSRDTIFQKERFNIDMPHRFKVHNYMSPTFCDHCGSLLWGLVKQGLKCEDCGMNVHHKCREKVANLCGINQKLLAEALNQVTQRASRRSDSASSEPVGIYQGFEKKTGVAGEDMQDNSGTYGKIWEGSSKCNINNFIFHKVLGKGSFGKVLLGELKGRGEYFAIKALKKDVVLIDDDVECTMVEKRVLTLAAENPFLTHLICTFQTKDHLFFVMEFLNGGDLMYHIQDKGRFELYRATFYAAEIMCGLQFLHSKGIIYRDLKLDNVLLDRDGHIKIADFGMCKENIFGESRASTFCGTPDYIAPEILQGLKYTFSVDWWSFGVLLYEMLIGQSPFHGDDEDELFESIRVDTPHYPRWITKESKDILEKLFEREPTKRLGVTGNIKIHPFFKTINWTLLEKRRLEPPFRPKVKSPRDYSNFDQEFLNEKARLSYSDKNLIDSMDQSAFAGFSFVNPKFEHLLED
Chain of Transforming protein RhoA (Homo sapiens) (P61586 whole entry): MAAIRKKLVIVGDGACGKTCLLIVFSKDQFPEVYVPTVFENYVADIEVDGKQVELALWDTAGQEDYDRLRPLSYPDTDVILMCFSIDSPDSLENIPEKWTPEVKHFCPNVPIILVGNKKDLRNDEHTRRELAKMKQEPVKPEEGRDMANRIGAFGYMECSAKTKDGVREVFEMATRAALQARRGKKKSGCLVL
Chain of Protein kinase C iota type/zeta type (Homo sapiens) (P41743 whole entry, looked up): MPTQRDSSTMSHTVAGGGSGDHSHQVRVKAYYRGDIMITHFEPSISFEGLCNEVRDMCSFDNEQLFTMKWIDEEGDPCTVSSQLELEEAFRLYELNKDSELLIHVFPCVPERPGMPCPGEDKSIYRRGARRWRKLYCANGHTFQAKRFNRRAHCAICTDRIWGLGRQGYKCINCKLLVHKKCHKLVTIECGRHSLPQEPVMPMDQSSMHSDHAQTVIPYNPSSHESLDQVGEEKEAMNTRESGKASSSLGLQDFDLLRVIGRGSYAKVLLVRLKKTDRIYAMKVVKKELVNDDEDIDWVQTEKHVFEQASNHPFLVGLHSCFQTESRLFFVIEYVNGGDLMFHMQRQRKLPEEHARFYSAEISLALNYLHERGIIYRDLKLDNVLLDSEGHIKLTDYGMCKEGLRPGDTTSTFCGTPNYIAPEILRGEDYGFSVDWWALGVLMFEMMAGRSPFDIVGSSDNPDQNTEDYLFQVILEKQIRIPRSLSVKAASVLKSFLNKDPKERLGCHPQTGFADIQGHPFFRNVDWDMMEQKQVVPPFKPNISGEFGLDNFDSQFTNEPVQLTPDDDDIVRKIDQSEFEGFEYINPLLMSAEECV
Chain of Protein kinase C iota type/zeta type (Homo sapiens) (Q05513 whole entry, looked up): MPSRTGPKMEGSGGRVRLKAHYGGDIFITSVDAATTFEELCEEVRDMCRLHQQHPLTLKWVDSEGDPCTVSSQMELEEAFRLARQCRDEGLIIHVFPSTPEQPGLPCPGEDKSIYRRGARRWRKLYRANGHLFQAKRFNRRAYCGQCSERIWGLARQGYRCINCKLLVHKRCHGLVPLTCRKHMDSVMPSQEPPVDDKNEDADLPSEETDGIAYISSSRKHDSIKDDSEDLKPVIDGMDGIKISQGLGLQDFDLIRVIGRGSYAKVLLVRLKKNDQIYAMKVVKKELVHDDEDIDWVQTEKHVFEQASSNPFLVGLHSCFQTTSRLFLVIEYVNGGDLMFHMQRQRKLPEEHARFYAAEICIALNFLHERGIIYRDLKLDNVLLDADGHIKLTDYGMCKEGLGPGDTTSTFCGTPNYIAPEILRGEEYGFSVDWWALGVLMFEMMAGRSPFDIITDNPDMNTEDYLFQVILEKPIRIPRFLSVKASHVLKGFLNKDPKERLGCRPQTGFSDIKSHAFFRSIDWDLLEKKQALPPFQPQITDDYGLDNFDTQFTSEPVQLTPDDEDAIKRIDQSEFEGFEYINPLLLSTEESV
Chain of PKC alpha and beta-2 (Homo sapiens) (P05771 whole entry, looked up): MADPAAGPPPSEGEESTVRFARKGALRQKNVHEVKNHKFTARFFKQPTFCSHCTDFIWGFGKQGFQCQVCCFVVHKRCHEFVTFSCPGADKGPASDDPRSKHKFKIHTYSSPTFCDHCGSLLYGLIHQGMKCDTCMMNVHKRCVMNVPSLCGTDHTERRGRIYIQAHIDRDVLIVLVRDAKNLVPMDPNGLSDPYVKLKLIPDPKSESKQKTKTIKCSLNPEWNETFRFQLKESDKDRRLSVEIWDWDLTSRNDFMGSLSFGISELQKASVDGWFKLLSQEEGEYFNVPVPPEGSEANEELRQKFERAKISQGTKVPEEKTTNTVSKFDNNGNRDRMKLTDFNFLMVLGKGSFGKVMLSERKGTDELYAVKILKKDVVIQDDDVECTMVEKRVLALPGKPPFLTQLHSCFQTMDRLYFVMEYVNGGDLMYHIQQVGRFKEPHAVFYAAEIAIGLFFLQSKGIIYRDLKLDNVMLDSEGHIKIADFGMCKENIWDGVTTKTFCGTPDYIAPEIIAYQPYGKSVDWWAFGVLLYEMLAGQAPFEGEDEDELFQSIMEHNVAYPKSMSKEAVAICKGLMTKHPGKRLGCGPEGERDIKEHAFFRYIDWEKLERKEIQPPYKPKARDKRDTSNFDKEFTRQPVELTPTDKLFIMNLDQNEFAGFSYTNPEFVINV

**Q.** Which IC50 (HepG2 [1]) does the source give for `COC(=O)c1cc2c(cc1O)[nH]c1ccccc12` [MUKONIDINE] here?
**A.** > 160 µM

**Q.** What does the source list for `Cc1cc2c(cc1O)[nH]c1ccccc12`?
**A.** IC50 (HepG2 [1]): 14.4 µM; IC50 [2]: 85.2 µM

**Q.** Which results are given for `COc1ccc2c(c1)[nH]c1ccc(C=O)cc12` [CLAUSZOLINE K]?
**A.** IC50 (HepG2 [1]): 4.23 µM; growth inhibition (GI) (HepG2 [3]): Active; growth inhibition (GI) (HepG2 [4]): Active; IC50 [2]: 72.5 µM

**Q.** For `O=Cc1cc2c(cc1O)[nH]c1ccccc12` [MUKONAL], which IC50 (HepG2 [1]) is on record?
**A.** 65.9 µM

**Q.** With `COc1ccc2c(c1)[nH]c1cc(OC)c(C(=O)O)cc12` [CLAUSINE K] as the compound, how does the IC50 (HepG2 [1]) read?
**A.** 24.4 µM

**Q.** With `COc1c2ccoc2nc2c(OC)cccc12` [GAMMA-FAGARINE] as the compound, how does the IC50 (HepG2 [1]) read?
**A.** > 160 µM

**Q.** For `Cc1cc2c([nH]c3ccccc32)c2c1OC(C)(C)C=C2` [GRINIMIBINE], which IC50 (HepG2 [1]) is on record?
**A.** > 160 µM

**Q.** Which IC50 (HepG2 [1]) does the source give for `O=Cc1cc(O)c2[nH]c3ccc(O)cc3c2c1` here?
**A.** 135 µM

**Q.** For `COc1cc(=O)n(C)c2ccccc12`, which IC50 (HepG2 [1]) is on record?
**A.** > 160 µM

**Q.** Which results are given for `COC(=O)c1cc(O)c2[nH]c3ccccc3c2c1` [CLAUSINE E]?
**A.** IC50 (HepG2 [1]): 15.8 µM; growth inhibition (GI) (HepG2 [3]): Active; growth inhibition (GI) (HepG2 [4]): Active; IC50 [2]: > 160 µM; IC50 (HeLa): 13.3 µM; IC50 (T98G): 71.6 µM; IC50 [5]: 16.9 µM; IC50 (MDA-MB-231): 37.1 µM; Activity (HepG2 [6]): Active; inhibition [7]: Active; inhibition [8]: inactive; Activity (HepG2 [9]): inactive; Activity (HepG2 [10]): 55.9%; Activity (HepG2 [11]): 31.1%; Activity (HepG2 [12]): 13.1%; Activity (HepG2 [13]): Active; Activity (HepG2 [14]): Active; Activity (HepG2 [15]): inactive; Activity (HepG2 [16]): inactive; Activity [17]: Non-toxic; Activity [18]: Non-toxic; Activity [19]: Non-toxic; Activity [20]: Non-toxic; inhibition [21]: Dose-dependent effect; inhibition [22]: inactive; inhibition [23]: inactive; inhibition [24]: inactive; inhibition [25]: inactive; Activity (HepG2 [26]): Active

**Q.** Which IC50 (HepG2 [1]) does the source give for `COc1ccc2c(c1)[nH]c1cc(OC)c(C=O)cc12` [LANSINE] here?
**A.** 102 µM

**Q.** For `COc1ccc2c(c1)[nH]c1cc(O)c(C=O)cc12`, which IC50 (HepG2 [1]) is on record?
**A.** 28.6 µM

**Q.** Which IC50 (HepG2 [1]) does the source give for `COc1c2ccccc2nc2occc12` [DICTAMNINE] here?
**A.** 55.2 µM

**Q.** What does the source list for `CC(=O)c1c(O)c(C)c(O)c(Cc2c(O)c3c(c(C(=O)/C=C/c4ccccc4)c2O)OC(C)(C)C=C3)c1O`?
**A.** inhibition [27]: Active; inhibition [28]: Active

**Q.** Which IC50 (HepG2 [1]) does the source give for `COC(=O)c1cc2c(cc1OC)[nH]c1cc(OC)ccc12` [CLAUSZOLINE C] here?
**A.** > 160 µM

**Q.** With `COC(=O)c1ccc2[nH]c3ccccc3c2c1` as the compound, how does the IC50 (HepG2 [1]) read?
**A.** 36.9 µM

**Q.** With `O=Cc1cc2c(cc1O)[nH]c1cc(O)ccc12` [CLAUSINE O] as the compound, how does the IC50 (HepG2 [1]) read?
**A.** 32.8 µM
